Test [1] concerns the target T1, Casein kinase I isoform epsilon (Homo sapiens, UniProt P49674).
Test [2] has as its target Cyclin-dependent kinase 5/CDK5 activator 1 (Homo sapiens, UniProt Q00535). The test is classed as cell-based, Sf9.
Test [3] concerns the target T2, Dual specificity protein kinase CLK1 (Homo sapiens, UniProt P49759). The test is classed as cell-based, Sf9.
The target of test [4] is Dual specificity protein kinase CLK2 (Homo sapiens, UniProt P49760).
Test [5] deals with T3, Dual specificity protein kinase CLK3 (Homo sapiens, UniProt P49761). The test is classed as cell-based, Sf9.
The target in test [6] is Dual specificity protein kinase CLK4 (Homo sapiens, UniProt Q9HAZ1).
Sequence of Dual specificity protein kinase CLK4 (Q9HAZ1 whole entry): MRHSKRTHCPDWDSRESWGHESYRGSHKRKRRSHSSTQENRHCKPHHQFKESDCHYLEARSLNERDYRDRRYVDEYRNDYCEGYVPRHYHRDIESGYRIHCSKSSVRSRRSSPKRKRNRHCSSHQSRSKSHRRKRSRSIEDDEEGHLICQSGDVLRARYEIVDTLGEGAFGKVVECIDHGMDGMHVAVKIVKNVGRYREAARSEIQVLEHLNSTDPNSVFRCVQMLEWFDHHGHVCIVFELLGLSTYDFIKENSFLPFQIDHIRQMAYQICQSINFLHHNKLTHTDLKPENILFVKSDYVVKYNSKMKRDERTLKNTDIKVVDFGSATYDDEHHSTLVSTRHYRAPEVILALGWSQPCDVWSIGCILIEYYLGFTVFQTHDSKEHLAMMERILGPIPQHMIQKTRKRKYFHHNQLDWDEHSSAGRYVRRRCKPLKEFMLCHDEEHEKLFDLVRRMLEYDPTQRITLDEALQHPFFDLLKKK
Test [7] addresses T4, Dual specificity tyrosine-phosphorylation-regulated kinase 2 (Homo sapiens, UniProt Q92630).
T4 sequence (Q92630 whole entry): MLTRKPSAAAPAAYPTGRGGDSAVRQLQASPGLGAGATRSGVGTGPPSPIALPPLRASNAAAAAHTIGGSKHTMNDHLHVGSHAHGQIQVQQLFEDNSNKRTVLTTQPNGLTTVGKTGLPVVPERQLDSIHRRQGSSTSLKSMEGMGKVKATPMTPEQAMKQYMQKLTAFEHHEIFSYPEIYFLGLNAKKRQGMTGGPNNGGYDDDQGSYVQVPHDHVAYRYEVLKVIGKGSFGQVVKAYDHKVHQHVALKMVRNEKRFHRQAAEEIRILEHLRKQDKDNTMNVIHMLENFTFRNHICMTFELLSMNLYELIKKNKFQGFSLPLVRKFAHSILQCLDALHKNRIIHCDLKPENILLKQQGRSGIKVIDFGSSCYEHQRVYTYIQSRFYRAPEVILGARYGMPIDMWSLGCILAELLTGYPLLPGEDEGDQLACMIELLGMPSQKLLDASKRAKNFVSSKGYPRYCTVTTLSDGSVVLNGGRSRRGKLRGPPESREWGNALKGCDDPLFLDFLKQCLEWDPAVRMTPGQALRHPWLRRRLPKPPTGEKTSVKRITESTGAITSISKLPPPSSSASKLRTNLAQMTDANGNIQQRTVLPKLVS

Test [8] addresses T5, Glycogen synthase kinase-3 beta (Homo sapiens, UniProt P49841). Type of test: cell-based, Sf9.
For test [9], the target named is T6, Dual specificity tyrosine-phosphorylation-regulated kinase 1A (Homo sapiens, UniProt Q13627).
Test [10] deals with T2, Dual specificity protein kinase CLK1. The following applies: dose 10.0 µM.
Test [11] deals with T6, Dual specificity tyrosine-phosphorylation-regulated kinase 1A. As to conditions: dose 10.0 µM.
In test [12] the target is Dual specificity tyrosine-phosphorylation-regulated kinase 2 (Homo sapiens) (UniProt Q92630). As to conditions: dose 10.0 µM.
In test [13] the target is T7, Mitogen-activated protein kinase 15 (Homo sapiens) (UniProt Q8TD08).
T7 sequence (whole entry): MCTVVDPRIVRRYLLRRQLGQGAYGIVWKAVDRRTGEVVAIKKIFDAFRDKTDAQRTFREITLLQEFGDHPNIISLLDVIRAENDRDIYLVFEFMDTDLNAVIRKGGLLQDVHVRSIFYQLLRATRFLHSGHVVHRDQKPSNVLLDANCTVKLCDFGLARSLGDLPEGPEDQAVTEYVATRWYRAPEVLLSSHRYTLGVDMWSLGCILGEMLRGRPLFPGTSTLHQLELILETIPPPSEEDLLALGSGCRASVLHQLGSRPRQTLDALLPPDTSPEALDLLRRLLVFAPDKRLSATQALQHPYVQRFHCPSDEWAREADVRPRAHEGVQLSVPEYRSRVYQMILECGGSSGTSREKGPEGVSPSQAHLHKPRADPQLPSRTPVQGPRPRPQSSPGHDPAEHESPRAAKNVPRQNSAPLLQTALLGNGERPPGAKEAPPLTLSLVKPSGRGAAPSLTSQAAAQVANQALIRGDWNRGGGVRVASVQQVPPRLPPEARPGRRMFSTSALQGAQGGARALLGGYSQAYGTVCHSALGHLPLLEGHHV
As to conditions: dose 10.0 µM.

The target of test [14] is BMP-2-inducible protein kinase (Homo sapiens) (UniProt Q9NSY1). The following applies: dose 10.0 µM.
Sequence of BMP-2-inducible protein kinase (Homo sapiens) (Q9NSY1 whole entry, looked up): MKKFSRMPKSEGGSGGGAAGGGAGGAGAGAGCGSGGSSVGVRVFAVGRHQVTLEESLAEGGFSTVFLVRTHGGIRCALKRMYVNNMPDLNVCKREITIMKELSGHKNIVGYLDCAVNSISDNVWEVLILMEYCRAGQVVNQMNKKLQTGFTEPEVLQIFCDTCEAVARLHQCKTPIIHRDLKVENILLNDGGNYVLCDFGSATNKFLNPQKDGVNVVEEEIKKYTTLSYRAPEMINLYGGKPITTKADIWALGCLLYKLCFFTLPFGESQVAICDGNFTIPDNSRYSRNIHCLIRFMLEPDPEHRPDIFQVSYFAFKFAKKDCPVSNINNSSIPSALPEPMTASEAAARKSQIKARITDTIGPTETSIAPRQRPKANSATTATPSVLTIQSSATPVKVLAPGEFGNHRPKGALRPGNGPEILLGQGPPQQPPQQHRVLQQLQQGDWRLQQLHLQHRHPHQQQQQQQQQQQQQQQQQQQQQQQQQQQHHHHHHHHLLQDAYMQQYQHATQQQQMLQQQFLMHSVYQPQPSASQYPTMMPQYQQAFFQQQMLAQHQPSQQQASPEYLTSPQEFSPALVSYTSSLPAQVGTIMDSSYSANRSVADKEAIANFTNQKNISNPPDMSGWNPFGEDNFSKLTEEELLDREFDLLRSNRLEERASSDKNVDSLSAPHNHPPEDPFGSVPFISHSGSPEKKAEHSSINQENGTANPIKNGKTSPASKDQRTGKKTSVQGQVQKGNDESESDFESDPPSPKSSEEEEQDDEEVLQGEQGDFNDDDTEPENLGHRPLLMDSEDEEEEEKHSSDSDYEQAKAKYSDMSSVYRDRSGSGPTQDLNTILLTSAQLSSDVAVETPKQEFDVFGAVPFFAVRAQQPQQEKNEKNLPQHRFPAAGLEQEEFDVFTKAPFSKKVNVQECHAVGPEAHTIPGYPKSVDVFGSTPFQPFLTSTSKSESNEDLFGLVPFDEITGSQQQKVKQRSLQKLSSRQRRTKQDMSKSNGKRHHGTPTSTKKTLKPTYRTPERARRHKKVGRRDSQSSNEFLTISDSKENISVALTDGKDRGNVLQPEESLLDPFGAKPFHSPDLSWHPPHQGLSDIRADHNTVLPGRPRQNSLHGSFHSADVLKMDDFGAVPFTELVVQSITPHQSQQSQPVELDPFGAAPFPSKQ
For test [15], the target named is T3, Dual specificity protein kinase CLK3. The following applies: dose 10.0 µM.
Test [16] concerns the target Serine/threonine-protein kinase haspin (Homo sapiens) (UniProt Q8TF76). As to conditions: dose 10.0 µM.
Test [17] deals with Aurora kinase A (Homo sapiens) (UniProt O14965). As to conditions: dose 10.0 µM.
Sequence of Aurora kinase A (Homo sapiens) (O14965 whole entry): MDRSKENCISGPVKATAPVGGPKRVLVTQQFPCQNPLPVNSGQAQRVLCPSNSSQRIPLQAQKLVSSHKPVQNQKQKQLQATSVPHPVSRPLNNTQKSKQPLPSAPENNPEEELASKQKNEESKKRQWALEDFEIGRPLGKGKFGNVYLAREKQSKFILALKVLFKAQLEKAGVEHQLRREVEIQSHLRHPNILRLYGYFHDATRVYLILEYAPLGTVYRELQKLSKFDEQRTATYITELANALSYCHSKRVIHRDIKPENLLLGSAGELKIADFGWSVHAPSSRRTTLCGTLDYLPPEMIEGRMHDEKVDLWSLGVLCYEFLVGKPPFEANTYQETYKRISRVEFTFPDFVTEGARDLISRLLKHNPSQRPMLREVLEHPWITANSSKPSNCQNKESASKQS
The target of test [18] is T5, Glycogen synthase kinase-3 beta. The following applies: dose 10.0 µM.
Test [19] concerns the target AP2-associated protein kinase 1 (Homo sapiens) (UniProt Q2M2I8). The following applies: dose 10.0 µM.
For test [20], the target named is Myotonin-protein kinase (Homo sapiens) (UniProt Q09013). As to conditions: dose 10.0 µM.
Sequence of Myotonin-protein kinase (Homo sapiens) (Q09013 whole entry, canonical isoform): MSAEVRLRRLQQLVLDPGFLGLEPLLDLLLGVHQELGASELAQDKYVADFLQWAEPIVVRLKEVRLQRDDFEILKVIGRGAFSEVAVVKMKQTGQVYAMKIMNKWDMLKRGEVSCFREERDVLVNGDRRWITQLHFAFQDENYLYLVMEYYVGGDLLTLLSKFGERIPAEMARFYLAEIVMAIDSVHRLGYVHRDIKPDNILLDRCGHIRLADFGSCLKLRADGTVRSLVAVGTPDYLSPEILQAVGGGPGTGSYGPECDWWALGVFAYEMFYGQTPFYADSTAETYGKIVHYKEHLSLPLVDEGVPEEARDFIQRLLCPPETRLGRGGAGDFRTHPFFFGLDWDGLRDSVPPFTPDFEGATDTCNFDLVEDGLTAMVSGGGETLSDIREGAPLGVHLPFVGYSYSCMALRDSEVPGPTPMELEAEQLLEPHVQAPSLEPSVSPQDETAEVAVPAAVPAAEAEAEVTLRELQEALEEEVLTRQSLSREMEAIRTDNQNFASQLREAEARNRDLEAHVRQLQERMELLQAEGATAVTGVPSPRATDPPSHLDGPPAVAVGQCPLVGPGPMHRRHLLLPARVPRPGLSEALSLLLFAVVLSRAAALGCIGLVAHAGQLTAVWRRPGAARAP
Test [21] addresses T1, Casein kinase I isoform epsilon. As to conditions: dose 10.0 µM.
For test [22], the target named is Serine/threonine-protein kinase pim-3 (Homo sapiens) (UniProt Q86V86). As to conditions: dose 10.0 µM.

The results in this text go back to ChEMBL document CHEMBL5360622, “Leucettinibs, a Class of DYRK/CLK Kinase Inhibitors Inspired by the Marine Sponge Natural Product Leucettamine B” (J Med Chem, 2023).

Sequence of Cyclin-dependent kinase 5/CDK5 activator 1 (Q00535 whole entry): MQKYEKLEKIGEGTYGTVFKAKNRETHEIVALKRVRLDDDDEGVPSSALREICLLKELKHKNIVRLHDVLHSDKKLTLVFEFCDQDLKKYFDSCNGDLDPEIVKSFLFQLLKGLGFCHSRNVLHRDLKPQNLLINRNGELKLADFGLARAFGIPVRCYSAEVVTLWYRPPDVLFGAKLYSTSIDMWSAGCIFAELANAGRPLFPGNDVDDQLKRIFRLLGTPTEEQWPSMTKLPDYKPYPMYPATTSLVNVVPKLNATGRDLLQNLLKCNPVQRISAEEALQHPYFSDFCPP
Sequence of Cyclin-dependent kinase 5/CDK5 activator 1 (Q15078 whole entry, further chain): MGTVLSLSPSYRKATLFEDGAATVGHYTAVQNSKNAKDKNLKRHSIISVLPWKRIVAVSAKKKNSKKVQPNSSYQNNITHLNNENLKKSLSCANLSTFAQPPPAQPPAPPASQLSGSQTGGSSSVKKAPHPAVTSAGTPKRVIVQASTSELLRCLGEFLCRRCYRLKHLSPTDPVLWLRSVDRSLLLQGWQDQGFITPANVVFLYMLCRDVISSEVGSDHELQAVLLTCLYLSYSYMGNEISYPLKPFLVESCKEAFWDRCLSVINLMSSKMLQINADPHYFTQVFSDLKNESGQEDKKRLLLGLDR
Sequence of Serine/threonine-protein kinase haspin (Homo sapiens) (Q8TF76 whole entry): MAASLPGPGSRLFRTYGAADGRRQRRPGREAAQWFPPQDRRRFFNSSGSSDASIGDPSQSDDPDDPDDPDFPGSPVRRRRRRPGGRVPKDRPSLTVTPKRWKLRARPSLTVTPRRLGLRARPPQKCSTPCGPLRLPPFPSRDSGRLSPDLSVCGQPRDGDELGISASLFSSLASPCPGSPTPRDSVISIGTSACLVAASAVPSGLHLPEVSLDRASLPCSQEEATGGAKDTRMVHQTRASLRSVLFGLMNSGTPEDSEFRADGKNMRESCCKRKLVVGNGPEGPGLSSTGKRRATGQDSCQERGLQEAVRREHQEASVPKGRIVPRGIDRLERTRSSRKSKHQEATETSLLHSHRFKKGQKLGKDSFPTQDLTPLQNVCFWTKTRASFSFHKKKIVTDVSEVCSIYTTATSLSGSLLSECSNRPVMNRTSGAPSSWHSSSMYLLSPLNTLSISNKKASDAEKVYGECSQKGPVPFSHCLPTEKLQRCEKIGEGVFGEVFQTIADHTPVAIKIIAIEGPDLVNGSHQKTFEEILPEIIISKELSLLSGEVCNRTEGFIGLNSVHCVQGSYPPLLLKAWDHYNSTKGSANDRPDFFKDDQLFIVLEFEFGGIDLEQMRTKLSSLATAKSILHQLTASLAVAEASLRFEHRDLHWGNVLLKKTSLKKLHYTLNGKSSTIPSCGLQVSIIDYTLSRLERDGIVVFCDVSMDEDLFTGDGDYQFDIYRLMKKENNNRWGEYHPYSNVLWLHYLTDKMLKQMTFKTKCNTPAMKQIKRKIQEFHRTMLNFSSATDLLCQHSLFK
Sequence of AP2-associated protein kinase 1 (Homo sapiens) (Q2M2I8 whole entry, looked up): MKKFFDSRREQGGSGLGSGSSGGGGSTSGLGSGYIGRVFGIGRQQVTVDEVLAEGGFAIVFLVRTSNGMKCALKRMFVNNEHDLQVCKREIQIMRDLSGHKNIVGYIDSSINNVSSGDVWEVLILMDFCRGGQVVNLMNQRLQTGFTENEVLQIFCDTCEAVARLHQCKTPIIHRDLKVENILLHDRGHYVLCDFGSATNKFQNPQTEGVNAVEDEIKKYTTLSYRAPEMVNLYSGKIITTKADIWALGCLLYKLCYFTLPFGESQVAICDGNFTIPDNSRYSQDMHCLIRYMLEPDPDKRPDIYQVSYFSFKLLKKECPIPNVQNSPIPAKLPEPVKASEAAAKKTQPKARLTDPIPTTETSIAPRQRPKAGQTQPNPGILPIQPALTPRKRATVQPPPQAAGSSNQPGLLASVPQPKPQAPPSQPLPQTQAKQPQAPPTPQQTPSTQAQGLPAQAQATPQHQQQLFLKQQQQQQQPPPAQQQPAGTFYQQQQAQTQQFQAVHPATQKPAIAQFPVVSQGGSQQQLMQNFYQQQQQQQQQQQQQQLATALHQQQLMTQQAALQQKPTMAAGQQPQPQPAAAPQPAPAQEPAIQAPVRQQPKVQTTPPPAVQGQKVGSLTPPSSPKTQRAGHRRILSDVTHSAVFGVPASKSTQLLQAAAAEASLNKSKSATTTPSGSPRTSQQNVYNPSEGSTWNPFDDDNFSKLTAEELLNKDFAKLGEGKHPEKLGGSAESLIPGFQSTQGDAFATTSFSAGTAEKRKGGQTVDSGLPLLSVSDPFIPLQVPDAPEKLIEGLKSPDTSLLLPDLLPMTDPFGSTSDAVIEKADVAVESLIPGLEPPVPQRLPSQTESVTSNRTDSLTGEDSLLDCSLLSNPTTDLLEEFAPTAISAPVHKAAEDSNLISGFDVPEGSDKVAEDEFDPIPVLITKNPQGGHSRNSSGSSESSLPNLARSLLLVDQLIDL

For the compound `O=C1NC(NC23CC4CC(CC(C4)C2)C3)=N/C1=C\c1ccc2scnc2c1`, the IC50 (as a rule, the concentration needed to halve the response being measured) in [1] is over 10 µM; in test [2], over 10 µM; in test [3] it was 8.96 µM; in [4] it was 8.34 µM; in [5], over 10 µM; in test [6], 3.5 µM. In addition, the IC50 was over 10 µM in [7], over 10 µM in test [8] and 3.4 µM in [9]. In addition, the ΔTm (as a rule, the shift of the melting midpoint relative to a reference) is 2 °C in test [10]; 3.2 °C in test [11]; 0 °C in [12]; -0.2 °C in test [13]; -0.1 °C in test [14]; -0.5 °C in test [15]. Further, the ΔTm in [16] is -0.1 °C; in test [17] it was -0.4 °C; in [18], 0.9 °C; in test [19], 0 °C; in test [20], 0.1 °C; in test [21], -2.5 °C. Moreover, the ΔTm in test [22] worked out at 1 °C.
